Measured values: ChEMBL document CHEMBL1201862, “PubChem BioAssay data set” (2004)
Active and inactive are the calls of the source.

Experiments:
Melanocortin receptor 4 = Melanocortin receptor 4 (Homo sapiens, UniProt P32245); type: functional, cell-based;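 further: Cell-based assay with luminescence read-out, confirmatory dose-response testing for agonist activity of biased ligands at MC4R; human U2OS cells with tagged receptor and beta-arrestin; potency of agonists that increase receptor coupling to beta-arrestin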
Sequence of Melanocortin receptor 4 (P32245 whole entry): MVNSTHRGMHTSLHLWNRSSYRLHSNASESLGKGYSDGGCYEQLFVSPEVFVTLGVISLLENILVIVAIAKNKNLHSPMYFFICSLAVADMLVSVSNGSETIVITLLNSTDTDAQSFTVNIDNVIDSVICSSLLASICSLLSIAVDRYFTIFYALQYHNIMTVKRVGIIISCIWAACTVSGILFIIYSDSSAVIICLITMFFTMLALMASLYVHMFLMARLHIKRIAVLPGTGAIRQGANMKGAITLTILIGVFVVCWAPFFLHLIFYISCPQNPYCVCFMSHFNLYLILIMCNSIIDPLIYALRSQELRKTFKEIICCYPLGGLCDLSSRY

[1] = miR-122 activators in hepatoma reporter cells, dose response, cell-based, Huh7 psiCHECK-miR122, Renilla luciferase, cherry-picked (AID 651956); type: functional;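 further: huh7 hepatoma cells stably carrying a psiCHECK-2 miR-122 sensor plasmid; renilla luciferase signal reporting endogenous miR-122 activity after 48 h compound exposure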
[2] = HEK293T cytotoxicity, dose response, cytotoxicity control for miR-122 modulator project, cell-based, inhibitor set, cherry-pick, set 2 (AID 720697); type: functional
[3] = HEK293T cytotoxicity, dose response, cytotoxicity control for miR-122 modulator project, cell-based, activator set, cherry-pick (AID 720690); type: functional;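 further: HEK293T human cells scored for general mammalian cytotoxicity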
[4] = AlphaScreen signal interference compounds, dose response, artefact control for ARNT-TACC3 interaction inhibitor project, biochemical, luminescence, cherry-pick (AID 651705); type: functional;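 further: AlphaScreen bead proximity signal that flags compounds interfering with the detection technology; potency reflects signal decrease which marks the compound as an assay artifact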
Beta-galactosidase = Beta-galactosidase (Escherichia coli, UniProt Q8VNN2); assay: Dose response counterscreen for EBI2 assay utilizing the enzyme, b-galactosidase.; type: functional
Sequence of Beta-galactosidase (Q8VNN2 whole entry): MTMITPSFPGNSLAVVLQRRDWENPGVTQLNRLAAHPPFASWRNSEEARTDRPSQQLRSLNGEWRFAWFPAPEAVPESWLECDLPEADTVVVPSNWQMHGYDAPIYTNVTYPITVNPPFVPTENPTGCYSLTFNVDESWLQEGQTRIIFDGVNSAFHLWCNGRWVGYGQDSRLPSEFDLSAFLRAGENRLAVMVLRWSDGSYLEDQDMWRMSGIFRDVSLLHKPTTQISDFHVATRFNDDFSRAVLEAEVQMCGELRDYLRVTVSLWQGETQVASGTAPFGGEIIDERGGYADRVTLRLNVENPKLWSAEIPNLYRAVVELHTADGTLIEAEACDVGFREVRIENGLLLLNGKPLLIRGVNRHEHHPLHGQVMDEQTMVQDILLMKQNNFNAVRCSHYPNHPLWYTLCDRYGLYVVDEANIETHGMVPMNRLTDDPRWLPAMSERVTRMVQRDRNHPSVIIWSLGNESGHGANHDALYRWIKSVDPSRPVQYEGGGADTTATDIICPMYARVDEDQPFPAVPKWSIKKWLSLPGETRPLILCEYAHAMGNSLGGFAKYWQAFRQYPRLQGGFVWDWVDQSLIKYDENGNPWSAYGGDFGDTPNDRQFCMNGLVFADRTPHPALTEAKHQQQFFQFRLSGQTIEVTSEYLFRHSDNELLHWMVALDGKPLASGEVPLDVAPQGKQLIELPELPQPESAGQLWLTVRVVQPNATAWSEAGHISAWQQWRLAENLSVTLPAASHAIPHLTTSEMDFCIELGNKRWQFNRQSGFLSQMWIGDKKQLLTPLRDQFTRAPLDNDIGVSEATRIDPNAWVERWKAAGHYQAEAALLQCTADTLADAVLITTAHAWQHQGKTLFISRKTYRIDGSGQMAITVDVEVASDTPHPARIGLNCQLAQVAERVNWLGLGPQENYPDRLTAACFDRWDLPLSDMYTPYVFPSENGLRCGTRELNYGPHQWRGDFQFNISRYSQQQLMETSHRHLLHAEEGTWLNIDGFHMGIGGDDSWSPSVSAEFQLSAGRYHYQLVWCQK

[5] = target: T1, Apoptotic protease-activating factor 1 (Homo sapiens, UniProt O14727); assay: SAR analysis of small molecule Activators of Apaf-1 in a Fluorescent assay.; type: functional; settings: read-out: EC50_Mean
T1 sequence (O14727 whole entry): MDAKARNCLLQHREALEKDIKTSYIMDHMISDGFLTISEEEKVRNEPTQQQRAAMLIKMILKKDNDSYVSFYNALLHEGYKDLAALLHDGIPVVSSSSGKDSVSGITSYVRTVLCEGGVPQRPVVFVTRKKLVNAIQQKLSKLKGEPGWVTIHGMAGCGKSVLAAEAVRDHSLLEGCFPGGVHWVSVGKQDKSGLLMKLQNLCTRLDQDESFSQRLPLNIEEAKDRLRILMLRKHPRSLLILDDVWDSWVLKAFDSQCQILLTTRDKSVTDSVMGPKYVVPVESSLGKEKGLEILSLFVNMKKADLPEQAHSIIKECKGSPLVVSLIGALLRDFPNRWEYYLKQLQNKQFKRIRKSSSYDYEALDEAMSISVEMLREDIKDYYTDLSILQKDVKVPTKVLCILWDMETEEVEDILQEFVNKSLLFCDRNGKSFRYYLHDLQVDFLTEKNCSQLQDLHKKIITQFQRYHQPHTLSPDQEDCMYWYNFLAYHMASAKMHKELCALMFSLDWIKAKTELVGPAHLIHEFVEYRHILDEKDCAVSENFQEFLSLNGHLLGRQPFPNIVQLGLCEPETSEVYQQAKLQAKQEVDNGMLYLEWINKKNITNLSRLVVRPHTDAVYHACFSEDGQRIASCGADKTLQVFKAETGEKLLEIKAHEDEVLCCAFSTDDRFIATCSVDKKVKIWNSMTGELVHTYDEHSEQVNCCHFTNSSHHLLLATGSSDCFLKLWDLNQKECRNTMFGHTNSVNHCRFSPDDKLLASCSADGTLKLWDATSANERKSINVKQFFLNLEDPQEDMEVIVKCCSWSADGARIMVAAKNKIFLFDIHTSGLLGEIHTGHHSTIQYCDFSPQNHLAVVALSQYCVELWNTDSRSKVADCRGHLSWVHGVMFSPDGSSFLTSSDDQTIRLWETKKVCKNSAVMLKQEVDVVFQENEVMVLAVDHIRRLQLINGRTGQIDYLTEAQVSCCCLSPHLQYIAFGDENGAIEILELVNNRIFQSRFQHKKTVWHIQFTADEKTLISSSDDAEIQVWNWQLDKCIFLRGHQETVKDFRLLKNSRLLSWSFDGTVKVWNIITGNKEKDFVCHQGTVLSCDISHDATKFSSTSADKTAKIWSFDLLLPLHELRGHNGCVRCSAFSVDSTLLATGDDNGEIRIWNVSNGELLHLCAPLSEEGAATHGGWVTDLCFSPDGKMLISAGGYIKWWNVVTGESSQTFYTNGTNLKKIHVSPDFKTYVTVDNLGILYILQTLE

[6] = target: T1, Apoptotic protease-activating factor 1; type: functional
INS1 = assay: beta cell apoptosis inhibitors, cytokine rescue, dose response, luminescence, retest (AID 449756); type: functional, cell-based; settings: Rattus norvegicus;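 further: cell death triggered by IL-1 beta plus TNF-alpha plus IFN-gamma mixture; protective hits raise ATP signal compared with cytokine alone wells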
[7] = target: T2, Sentrin-specific protease 8 (Homo sapiens, UniProt Q96LD8); type: functional
T2 sequence (Q96LD8 whole entry): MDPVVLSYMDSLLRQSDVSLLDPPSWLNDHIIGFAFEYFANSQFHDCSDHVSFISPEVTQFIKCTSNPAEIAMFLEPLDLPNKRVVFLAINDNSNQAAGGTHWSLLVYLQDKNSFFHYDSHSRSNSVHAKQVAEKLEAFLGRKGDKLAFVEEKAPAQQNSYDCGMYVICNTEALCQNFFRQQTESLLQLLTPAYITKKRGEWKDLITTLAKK

[8] = target: T2, Sentrin-specific protease 8; type: functional; remark: listed apart in the source
[9] = A549 cell cytotoxicity, dose response, cytotoxicity control, plate reader, cherry-pick, antagonist series (AID 743412); type: functional, cell-based
[10] = HepG2 cell cytotoxicity, dose response, cytotoxicity control, plate reader, cherry-pick, antagonist series (AID 743416); type: functional, cell-based
[11] = HEK293 cell cytotoxicity, dose response, cytotoxicity control, plate reader, cherry-picked samples (AID 743446); type: functional, cell-based
BJ [12] = assay: cytotoxicity toward BJ-TERT fibroblasts, dose response, cell-based, RAS-independent, luminescence (AID 1933); type: functional; settings: Homo sapiens
BJ [13] = assay: cells; type: functional, cell-based; settings: Homo sapiens
BJ [14] = assay: cytotoxicity toward BJ-TERT-LT-ST fibroblasts, dose response, cell-based, RAS-independent, luminescence (AID 1935); type: functional; settings: Homo sapiens;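 further: BJ fibroblasts immortalized with TERT plus LT and ST oncogenes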
[15] = cytotoxicity toward DRD oncogenic fibroblasts, dose response, cell-based, non-viral oncogenic, luminescence (AID 1934); type: functional; settings: Homo sapiens
BJ [16] = assay: cytotoxicity toward Ras-transformed BJeLR fibroblasts, dose response, cell-based, alamar blue fluorescence, cherrypicked samples (AID 2631); type: functional; settings: Homo sapiens;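 further: confirmatory dose-response assay in RAS-dependent BJ fibroblasts engineered with TERT, LT and ST, with cytotoxicity read by fluorescence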
[17] = target: T3, Rac GTPase-activating protein 1 (Homo sapiens, UniProt Q9H0H5); assay: MgcRacGAP GTPase-activating activity inhibitors, confirmation, biochemical, ADP Hunter fluorescence, primary and confirmatory (AID 624330); type: functional
T3 sequence (Q9H0H5 whole entry): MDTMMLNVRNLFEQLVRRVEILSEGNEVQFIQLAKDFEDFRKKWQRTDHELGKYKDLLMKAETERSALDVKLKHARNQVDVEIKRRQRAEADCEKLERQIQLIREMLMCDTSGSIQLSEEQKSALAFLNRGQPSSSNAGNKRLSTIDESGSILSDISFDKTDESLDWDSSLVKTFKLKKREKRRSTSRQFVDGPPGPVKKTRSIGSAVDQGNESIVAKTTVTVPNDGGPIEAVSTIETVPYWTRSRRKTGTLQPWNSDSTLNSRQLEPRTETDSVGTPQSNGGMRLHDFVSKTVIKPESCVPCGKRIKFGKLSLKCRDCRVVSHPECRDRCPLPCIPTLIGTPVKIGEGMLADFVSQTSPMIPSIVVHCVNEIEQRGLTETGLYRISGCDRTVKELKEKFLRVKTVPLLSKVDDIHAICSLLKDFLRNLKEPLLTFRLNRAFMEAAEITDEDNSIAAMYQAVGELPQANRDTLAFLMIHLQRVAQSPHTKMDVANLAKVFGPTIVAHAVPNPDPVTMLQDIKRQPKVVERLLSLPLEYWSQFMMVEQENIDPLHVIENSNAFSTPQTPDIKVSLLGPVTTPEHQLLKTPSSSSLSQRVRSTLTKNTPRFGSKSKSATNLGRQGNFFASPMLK

[18] = tested on: Streptococcus sp. 'group A'; assay: growth inhibition of control SK(-) GAS strain, dose response, counter-screen for streptokinase expression inhibitor project, luminescence, kanamycin, BacTiterGlo, confirmation (AID 1900); type: functional, organism-based
Streptokinase A = target: T4, Streptokinase A (Streptococcus pyogenes serotype M1, UniProt P10520); assay: S. pyogenes streptokinase expression inhibitors, potency, dose response, plasminogen activation absorbance, OD405 (AID 1914); type: functional, Streptococcus pyogenes M1 GAS;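 further: secreted streptokinase activity via plasminogen activation per viability signal from cell pellet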
T4 sequence (P10520 whole entry): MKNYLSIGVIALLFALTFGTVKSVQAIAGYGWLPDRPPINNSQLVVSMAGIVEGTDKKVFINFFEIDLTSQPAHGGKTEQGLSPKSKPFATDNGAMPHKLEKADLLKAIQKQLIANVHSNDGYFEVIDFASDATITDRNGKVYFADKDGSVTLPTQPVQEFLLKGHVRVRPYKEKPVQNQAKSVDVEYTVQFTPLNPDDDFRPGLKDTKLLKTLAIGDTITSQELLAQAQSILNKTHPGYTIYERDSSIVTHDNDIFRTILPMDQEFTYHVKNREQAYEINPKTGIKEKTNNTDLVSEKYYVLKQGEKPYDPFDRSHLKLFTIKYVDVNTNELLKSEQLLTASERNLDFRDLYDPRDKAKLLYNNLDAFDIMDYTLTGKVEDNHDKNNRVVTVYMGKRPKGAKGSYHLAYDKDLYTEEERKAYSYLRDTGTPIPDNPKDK

Streptococcus = assay: Group A Streptococcus viability loss, dose response, counter-screen for streptokinase expression inhibitor project, luminescence, BacTiterGlo (AID 1915); type: functional, organism-based;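 further: potency for reduction of bacterial viability or growth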
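Wherever EC50 Mean is given: caspase-3 cleavage of fluorogenic Rh110 DEVD substrate downstream of apoptosome activation.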

O=CNc1cc(-c2ccsc2)cn2c(-c3ccccc3)cnc12
EC50 (Melanocortin receptor 4): > 89.2 µM (inactive)

Cc1ccc(C(=O)N2CCN(c3ccc(NC(=O)COc4ccccc4C)cc3)CC2)cc1
AC50 [1]: 18.7 µM (active)
AC50 [2]: 15.2 µM (active)
AC50 [3]: 30.9 µM (active)

Cc1nnc(NC(=O)c2ccc(S(=O)(=O)N3CCCCC3C)cc2)o1 (stereo not drawn)
AC50 [4]: 92.5 µM (active)

N#Cc1ccc(OCC(=O)NCCCn2ccnc2)cc1
AC50 [4]: 95.7 µM (active)

Cc1ccc(NC(=O)N2CCC(O)(c3ccc(Cl)cc3)CC2)cc1
IC50 (Beta-galactosidase): > 80 µM (inactive)

O=C(c1ccc(-n2cccc2)cc1)N1CCN(Cc2ccccc2)CC1
IC50 (Beta-galactosidase): > 80 µM (inactive)

COc1ccc(-c2cc(NC(C)=O)c3ncc(-c4ccccc4)n3c2)c(OC)c1
EC50 (Melanocortin receptor 4): > 89.2 µM (inactive)

O=C(c1ccco1)N1CCN(C(=O)C2CC(c3ccc(F)cc3)=NO2)CC1 (stereo not drawn)
EC50 [5]: > 100 µM (inactive)

CCCCOc1cc(NCc2ccccc2)c2ncn(C(C)C)c2c1
IC50 [6]: 13.4 µM (active)
AC50 (INS1): 8.11 µM (active)
IC50 [7]: 12.9 µM (active)
IC50 [8]: 12.2 µM (active)
AC50 [9]: 17.3 µM (active)
AC50 [10]: 20.3 µM (active)
AC50 [11]: > 52 µM (inactive)

CC(=O)Nc1ccc(C(C)C)cc1
EC50 [5]: > 100 µM (inactive)

CCOc1ccccc1NC(=O)CCS(=O)(=O)c1cc2c(cc1Br)CCN2C(=O)C1CC1
EC50 [5]: > 100 µM (inactive)

COc1ccc(S(=O)(=O)N2CCCCC2)cc1NC(=O)CCS(=O)(=O)c1ccc(C)cc1
EC50 [5]: > 100 µM (inactive)

CN(C)c1ccccc1-c1cc(NC=O)c2ncc(-c3cccc(C(F)(F)F)c3)n2c1
EC50 (Melanocortin receptor 4): > 89.2 µM (inactive)

CC(=O)Nc1cc(-c2ccccc2)cn2c(-c3ccc(F)cc3)cnc12
EC50 (Melanocortin receptor 4): > 89.2 µM (inactive)

O=C(/C=C/c1ccc(Br)cc1)N1CCN(c2cccc(C(F)(F)F)c2)CC1
IC50 (Beta-galactosidase): > 80 µM (inactive)

CCN(CC(=O)NCc1cccs1)C(=O)/C=C/c1ccc(C)cc1
IC50 (Beta-galactosidase): > 80 µM (inactive)

C[C@@H]1CCCCO[C@H](CN(C)CC2CCCCC2)[C@H](C)CN([C@@H](C)CO)C(=O)c2cc(NC(=O)Nc3cccc4ccccc34)ccc2O1
AC50 [1]: 11.1 µM (active)
AC50 [2]: 0.587 µM (active)
AC50 [3]: 10.6 µM (active)

CCOc1cc(/C=C2\CN(C)C/C(=C\c3ccc(O)c(OCC)c3)C2=O)ccc1O
EC50 (BJ [12]): 3.26 µM (inconclusive)
EC50 (BJ [13]): 4.94 µM (inconclusive)
EC50 (BJ [14]): 2.64 µM (inconclusive)
EC50 [15]: 2.93 µM (active)
EC50 (BJ [16]): 0.571 µM (active)
IC50 [17]: 38.9 µM (active)

Cc1ccc(-c2cnc(N)n2C)cc1C
EC50 [18]: 3.86 µM (active)
EC50 (Streptokinase A): 89.4 µM (active)
EC50 (Streptococcus): > 150 µM (not active)
AC50 [4]: 71.8 µM (active)

O=C(COC(=O)c1ccco1)Nc1nnc(-c2ccccc2)o1
AC50 [4]: 133 µM (active)
